Test results taken from patent US7138493B1, “ATP-binding cassette protein responsible for cytotoxin resistance” (The United States of America as represented by the …, priority 1998, dated 2006).
pIC50: −log10 of the molar value.

How the values were obtained:
S1-M1-80 cells = experiment: Proliferation of mitoxantrone resistant cells measured by sulforhodamine staining; assay type: cell-based, human
Method: The cells are then contacted with a toxic chemotherapy drug, such as mitoxantrone or daunomycin, in an amount that permits cell survival due to the resistance conferred by the ATP-binding cassette protein. The amount used is preferably from about 30 μM to about 3 mM. The cells are exposed to the drug for a time that is preferably from about 48 hours to about 96 hours. Cell growth is measured for these cells based on sulforhodamine staining measurement. Alternatively, cell growth can be monitored by vital stains, metabolite measurements or counting cell divisions.
One specific way to measure cell viability is by a calorimetric assay (Skehan et al., Natl. Cancer Inst. 82: 1117–1121 (1990)). […] The number of viable cells can then be determined by measuring the OD at 570 nm. Alternatively, viability of cells can be measured by counting cells with a cell counter or by incorporation of tritiated thymidine.
These include mitoxantrone, several anthracyclines, rhodamine, daunomycin, SN-38 (the active metabolite of CPT-11), topotecan, and bisantrene. […] For example, S1-M1-80 cells can be incubated in media containing 30 micromolar (IC10) of mitoxantrone and the proliferation of the cells measured by sulforhodamine staining after 96 hours with and without the addition of various potential inhibitors, as a screening assay. […]

[1] = tested on: cells that overexpress MXR1; experiment: Drug resistance of cells that overexpress MXR1; assay type: cell-based
Text: These include mitoxantrone, several anthracyclines, rhodamine, daunomycin, SN-38 (the active metabolite of CPT-11), topotecan, and bisantrene. To identify compounds that can reverse the effect of ABCP overexpression, the concentration of drug that inhibits the proliferation of resistant cells by 50% (IC50) can be measured by an assay in the presence and absence of putative inhibitors. Compounds that cause a significant decrease in the IC50 will represent inhibitors and be characterized further.
These include mitoxantrone, several anthracyclines, rhodamine, daunomycin, SN-38 (the active metabolite of CPT-11), topotecan, and bisantrene. To identify compounds that can reverse the effect of MXR1 overexpression, the concentration of drug that inhibits the proliferation of resistant cells by 50% (IC50) will be measured in the presence and absence of putative inhibitors. Compounds that cause a significant decrease in the IC50 will represent inhibitors and be characterized further. For example, S1-M1-80 cells can be incubated in media containing 30 micromolar (IC10) of mitoxantrone and the proliferation of the cells measured by sulforhodamine staining after 96 hours with and without the addition of various potential inhibitors, as a screening assay. Next, for compounds that have potential activity, a formal calculation of the IC50 can be made by incubating the cells in a range of concentrations, diluting 3-fold from 3 mM, again, with and without the inhibitor in question. […] In the absence of a reversal agent, the IC50 is 100 micromolar for the S1M1-80 cells. Compounds that lower the IC50 for mitoxantrone can be tested for their ability to also lower the IC50 for other MXR1-transporting drugs such as adriamycin, topotecan, or bisantrene.

Molecule	pIC50 (S1-M1-80 cells; Homo sapiens, S1-M1-80, S1M1-80 cells, in the absence of a reversal agent, read-out: IC50 (concentration of drug that inhibits the proliferation of resistant cells by 50%))	IC10 (S1-M1-80 cells; S1-M1-80 cells, concentration in media for the screening assay, 96 hours) [µM]	resistance of cells that overexpress MXR1 to the drug [1]
O=C1c2c(O)ccc(O)c2C(=O)c2c(NCCNCCO)ccc(NCCNCCO)c21 [mitoxantrone]	4.00	30	resistant
CC[C@@]1(O)C(=O)OCc2c1cc1n(c2=O)Cc2cc3c(CN(C)C)c(O)ccc3nc2-1 [topotecan]	–	–	resistant
rhodamine	–	–	resistant
C(=N\NC1=NCCN1)/c1c2ccccc2c(/C=N/NC2=NCCN2)c2ccccc12 [bisantrene]	–	–	resistant
CCc1c2c(nc3ccc(O)cc13)-c1cc3c(c(=O)n1C2)COC(=O)[C@]3(O)CC [SN-38]	–	–	resistant
COc1cccc2c1C(=O)c1c(O)c3c(c(O)c1C2=O)C[C@@](O)(C(C)=O)C[C@@H]3O[C@H]1C[C@H](N)[C@H](O)[C@H](C)O1 [daunomycin]	–	–	resistant
